Data on six compounds can be found in publication PMC9116259, “Discovery of new nicotinamides as apoptotic VEGFR-2 inhibitors: virtual screening, synthesis, anti-proliferative, immunomodulatory, ADMET, toxicity, and molecular dynamic simulation studies” (Journal of Enzyme Inhibition and Medicinal Chemistry, 2022).

Assay [1] has as its system HCT-116 cells. Briefly: In vitro anti-proliferative activity, MTT test, HCT-116. To be noted: Homo sapiens, read-out: In vitro cytotoxicity IC50 HCT-116. The format is cell-based. The procedure: (§1) The in vitro anti-proliferative effects of the four synthesised members were assessed against two cancer cell lines namely, hepatocellular carcinoma (HepG-2) and colorectal carcinoma (HCT-116) cell lines, by the standard MTT test[29]. HepG-2 and HCT-116 cell lines were precisely selected relying on their VEGF overexpression. […] The cytotoxicity results were established in Table 7.
(§2) The anti-proliferative activity of the four members was estimated by the MTT protocol as described[38–41] (Supplementary data).
A general note: Tetrazolium dyes change colour on reduction, which living cells bring about.

The next assay relates to HepG-2 cells. As to the kind of experiment: In vitro anti-proliferative activity, MTT test, HepG-2. The format is cell-based. To be noted: for IC50: Homo sapiens, HepG2, MTT, HepG-2, read-out: In vitro cytotoxicity IC50 HepG-2. The procedure: as §1, §2
For another assay, the target named is T1, VEGFR-2 (Homo sapiens, UniProt P35968).
T1 construct: in vitro investigation against VEGFR-2 in HCT-116 cells; endogenous in cells; host or cells: HCT-116
Briefly: Assessment of VEGFR-2 inhibition in HCT-116 cells. The format is cell-based. The note with it: HCT-116 cells treated at concentrations equal to the cytotoxic ones; read-out: VEGFR-2 protein concentration (called VEGFR-2 inhibitory IC50 in text). The source says:
The designed congeners were, also, subject to an in vitro investigation against VEGFR-2 in HCT-116 cells.
The four selected members were further assessed to measure their inhibitory activities against the VEGFR-2 enzyme following the protocol shown in Supplementary data.

In the next assay the test system is TNF-α. Briefly: In vitro immunomodulatory assay, TNF-α (ELISA) in HCT-116 cells. The format is cell-based, human. The note with it: C-6 (21.8 µM), D-1 (3.08 µM), 48 h. The procedure:
(§3) Compounds C-6 and D-1 were further assayed for their immunomodulatory effect on HCT-116 cells. Two immunity-related markers were measured namely, human tumour necrosis factor alpha (TNF-α), and interleukin 6 (IL6). Dexamethasone, a potent inhibitor of both TNF-α and IL6, was used as a positive control.
(§4) The level of TNF-α and IL6 in cell culture supernatants was assessed by the ELISA technique according to the reported procedure[50]^,[51].

The test system of another assay is IL6. Briefly: In vitro immunomodulatory assay, IL6 (ELISA) in HCT-116 cells. The note with it: C-6 (21.8 µM), D-1 (3.08 µM), 48 h. The format is cell-based. The procedure:
as §3, §4
A general note: In an ELISA, binding on a coated surface is turned into a signal by an enzyme label.

For a further assay, the system named is BAX. Briefly: BAX level in treated HCT-116 cells. The format is cell-based. The procedure:
(§5) Upregulation of the proapoptotic genes in addition to the downregulation of the anti-apoptotic ones, thus, confirmed the apoptotic behaviour of the designed compound.
(§6) Estimation of caspase-3 levels after treatment of cells with compound D-1 was performed according to the protocol described by M. Andersson et al.[42]. While Bax and Bcl-2 cellular levels were evaluated for D-1 in HCT-116 cells according to the reported protocol[43] (Supplementary data).

The subject of the next assay is Bcl-2. Briefly: Bcl-2 level in treated HCT-116 cells. The format is cell-based. The procedure:
as §5, §6

Another assay concerns caspase-8. As to the kind of experiment: Caspase-8 concentration in treated HCT-116 cells. The format is cell-based.
Assay [2] relates to HCT-116 cells. As to the kind of experiment: Cell cycle analysis by flow cytometry in HCT-116 cells. The format is cell-based. The note with it: HCT-116, 3.08 µM for 48 h. The text has this: Aiming to obtain a further understanding of the mechanism that triggers the anticancer activity of D-1, the cell cycle progression was investigated using flow cytometry in HCT-116 cells.
Based on the protocol referred to by Léonce et al., the flow cytometric analysis for congener D-1 was done[19]^,[44–46] (Supplementary data).
(In general: In flow cytometry, cells or beads pass a laser one at a time.)

Assay [3] has as its system HCT-116 cells. Briefly: Annexin-V/propidium iodide apoptosis assay in HCT-116 cells. To be noted: HCT-116, 3.08 µM for 48 h. The format is cell-based. The procedure: Since the induction of apoptosis is a key determinant in the drug’s therapeutic outcome, the ability of the best cytotoxic member D-1 to induce apoptosis in colorectal carcinoma (HCT-116) cells was evaluated using Annexin-V/propidium iodide (PI) staining assay. […] The percentage of early and late apoptotic populations elevated from 0.7% and 1.73% in the untreated cells to 4.36% and 17.62% in the D-1 treated cells (Table 10 and Figures 11 and 12).
Annexin‐V‐FITC assay for compound D-1 on HCT-116 cells according to the reported procedure[15]^,[47–49] (Supplementary data).

T1 sequence (P35968 20-1356): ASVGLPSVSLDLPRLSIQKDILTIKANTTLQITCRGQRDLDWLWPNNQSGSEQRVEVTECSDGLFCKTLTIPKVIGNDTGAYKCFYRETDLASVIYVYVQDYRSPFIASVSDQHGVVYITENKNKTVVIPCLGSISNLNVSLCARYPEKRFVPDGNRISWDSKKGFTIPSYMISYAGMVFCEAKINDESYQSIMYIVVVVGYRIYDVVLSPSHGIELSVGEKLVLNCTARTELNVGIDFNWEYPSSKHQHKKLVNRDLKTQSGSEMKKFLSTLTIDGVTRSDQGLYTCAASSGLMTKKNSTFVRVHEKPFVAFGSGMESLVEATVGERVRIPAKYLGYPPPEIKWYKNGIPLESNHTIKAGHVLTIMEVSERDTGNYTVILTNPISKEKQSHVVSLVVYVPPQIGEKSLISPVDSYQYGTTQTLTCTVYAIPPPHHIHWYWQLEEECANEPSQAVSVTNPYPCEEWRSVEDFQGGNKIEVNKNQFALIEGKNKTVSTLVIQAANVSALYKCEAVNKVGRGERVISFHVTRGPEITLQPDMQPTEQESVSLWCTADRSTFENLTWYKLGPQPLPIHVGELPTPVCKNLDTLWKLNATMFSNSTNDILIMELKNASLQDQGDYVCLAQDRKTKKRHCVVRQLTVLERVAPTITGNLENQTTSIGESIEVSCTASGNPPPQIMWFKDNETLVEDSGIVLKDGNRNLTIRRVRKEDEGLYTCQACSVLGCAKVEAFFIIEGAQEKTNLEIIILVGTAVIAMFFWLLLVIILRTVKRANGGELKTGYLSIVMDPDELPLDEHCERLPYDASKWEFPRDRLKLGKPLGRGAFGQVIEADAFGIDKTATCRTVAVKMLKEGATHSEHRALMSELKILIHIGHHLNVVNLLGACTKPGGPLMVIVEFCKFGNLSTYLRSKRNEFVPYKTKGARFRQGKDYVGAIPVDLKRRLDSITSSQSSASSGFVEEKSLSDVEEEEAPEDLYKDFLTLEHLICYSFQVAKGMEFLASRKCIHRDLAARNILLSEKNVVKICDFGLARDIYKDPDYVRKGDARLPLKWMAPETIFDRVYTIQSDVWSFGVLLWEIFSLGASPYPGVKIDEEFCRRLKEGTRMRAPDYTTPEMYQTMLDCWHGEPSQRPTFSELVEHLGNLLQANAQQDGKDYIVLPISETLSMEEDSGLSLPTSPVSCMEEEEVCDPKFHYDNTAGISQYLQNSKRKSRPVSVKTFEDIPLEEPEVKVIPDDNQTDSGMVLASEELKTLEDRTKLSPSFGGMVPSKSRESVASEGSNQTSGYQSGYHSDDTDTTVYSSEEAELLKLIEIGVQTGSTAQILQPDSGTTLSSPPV

Consider `CC(=NNC(=O)c1cccnc1)c1ccc(NC(=O)c2cccnc2)cc1` [Compound A-1, N-(4–(1-(2-Nicotinoylhydrazineylidene)ethyl)phenyl)nicotinamide], for which the IC50 turned out to be 34.9 ± 0.084 µM in the assay with HCT-116 cells [1], 18.07 ± 0.052 µM with HepG-2 cells and 0.0221 µM at VEGFR-2.
In the same order, the values of `CC(=NNC(=O)c1ccccc1)c1ccc(NC(=O)c2cccnc2)cc1` [Compound B-1, N-(4–(1-(2-Benzoylhydrazineylidene)ethyl)phenyl)nicotinamide] are 19.6 ± 0.052 µM, 17.4 ± 0.05 µM and 0.08 µM.
Regarding `CC(=NO)c1ccc(NC(=O)c2cccnc2)cc1` [Compound C-6, N-(4–(1-(Hydroxyimino)ethyl)phenyl)nicotinamide], the IC50 in the assay with HCT-116 cells [1] turned out to be 21.8 ± 0.057 µM; in the assay with HepG-2 cells, 15.9 ± 0.045 µM; at VEGFR-2 it was 0.0157 µM. The “% Inhibition of TNF-α” value in the assay with TNF-α is on record as 86.48%. The “% Inhibition of IL6” value in the assay with IL6 worked out at 75.21%.
Turning to `CC(=NNc1ccccc1)c1ccc(NC(=O)c2cccnc2)cc1` [Compound D-1, N-(4–(1-(2-Phenylhydrazineylidene)ethyl)phenyl)nicotinamide], in the assay on HCT-116 cells [1], the IC50 is 3.08 ± 0.002 µM. Further, the IC50 in the assay with HepG-2 cells was determined as 4.09 ± 0.005 µM. In addition, the “activity against HepG-2, fold more than sorafenib” value in the assay with HepG-2 cells (ratio of IC50 values versus sorafenib) was “about 1.2 fold”. Moreover, the IC50 on VEGFR-2 was 0.0231 µM. In the assay with BAX (HCT-116 cells, versus control), the “increase of BAX expression level” value is given as 9.52 fold. The same compound had a BAX with BAX (treated HCT-116 cells) of 401.79 pg/mL. For the same compound, the “decrease of Bcl-2 level to” value in the assay on Bcl-2 (HCT-116 cells, versus control) amounted to 0.23 fold. This compound showed a Bcl-2 in the assay on Bcl-2 (treated HCT-116 cells) of 1.274 pg/mL. In addition, in the assay with caspase-8 (HCT-116 cells, versus control), the “increase of caspase-8 level” value turned out to be 10.41 fold. Further, the Caspase-8 with caspase-8 (treated HCT-116 cells) is 523.61 pg/mL. In the assay on HCT-116 cells [2], the “%G0-G1” value is recorded as 41.26%, the “%G2-M” value was found to be 30.37%, the “%Pre-G1” value is 23.68% and the “%S” value is recorded as 28.37%. Besides, in the assay on HCT-116 cells [3] (% given in Figure 11), the “Apoptosis Early” value worked out at 4.36%, the “Apoptosis Late” value is listed as 17.62% and the “Apoptosis Total” value is recorded as 23.68%. For the same compound, the Necrosis with HCT-116 cells [3] (% printed in Figure 11) is on record as 1.7%. In addition, the “% Inhibition of TNF-α” value in the assay with TNF-α amounted to 91.19%. Further, the “% Inhibition of IL6” value in the assay on IL6 is reported as 85.64%.
With `C[C@@H]1C[C@H]2[C@@H]3CCC4=CC(=O)C=C[C@]4(C)[C@@]3(F)[C@@H](O)C[C@]2(C)[C@@]1(O)C(=O)CO` [Dexamethasone, reference compound], the “% Inhibition of TNF-α” value with TNF-α is given as 82.47%. The “% Inhibition of IL6” value in the assay with IL6 stood at 93.15%.
For `CNC(=O)c1cc(Oc2ccc(NC(=O)Nc3ccc(Cl)c(C(F)(F)F)c3)cc2)ccn1` [Sorafenib, sorafenib, reference compound], the IC50 was 7.28 ± 0.58 µM in the assay with HCT-116 cells [1] and 5.28 ± 0.21 µM in the assay with HepG-2 cells.
